Measurements as given in the supplement of paper PMC10307832.

Legend:
Assay in all cases: relative viability (nuclei count vs DMSO), 5 days (fraction); higher = more cells survive
Bosutinib + Vorinostat = compound: COc1cc(Nc2c(C#N)cnc3cc(OCCCN4CCN(C)CC4)c(OC)cc23)c(Cl)cc1Cl [Bosutinib] + O=C(CCCCCCC(=O)Nc1ccccc1)NO [Vorinostat] (partner 1 µM)
Outline: (§1)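 Five library-drug doses in √10 steps were combined with a fixed anchor-drug dose, or a single drug was given alone, by pin tool to lung cancer cell lines in 1536-well plates the day after seeding. Nuclei were stained and counted after 5 days. Relative viability is the nuclei count in treated wells over that in vehicle wells, taken as the median of duplicate plates.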

Bosutinib + AZD7762 = compound: COc1cc(Nc2c(C#N)cnc3cc(OCCCN4CCN(C)CC4)c(OC)cc23)c(Cl)cc1Cl [Bosutinib] + NC(=O)Nc1cc(-c2cccc(F)c2)sc1C(=O)N[C@H]1CCCNC1 [AZD7762] (partner 0.2 µM)
Outline: as §1

Bosutinib + Trametinib = compound: COc1cc(Nc2c(C#N)cnc3cc(OCCCN4CCN(C)CC4)c(OC)cc23)c(Cl)cc1Cl [Bosutinib] + CC(=O)Nc1cccc(-n2c(=O)n(C3CC3)c(=O)c3c(Nc4ccc(I)cc4F)n(C)c(=O)c(C)c32)c1 [Trametinib] (partner 0.02 µM)
Outline: as §1

Bosutinib + Luminespib = compound: COc1cc(Nc2c(C#N)cnc3cc(OCCCN4CCN(C)CC4)c(OC)cc23)c(Cl)cc1Cl [Bosutinib] + CCNC(=O)c1noc(-c2cc(C(C)C)c(O)cc2O)c1-c1ccc(CN2CCOCC2)cc1 [Luminespib] (partner 0.01 µM)
Outline: as §1

Bosutinib + OSI-027 = compound: COc1cc(Nc2c(C#N)cnc3cc(OCCCN4CCN(C)CC4)c(OC)cc23)c(Cl)cc1Cl [Bosutinib] + COc1cccc2cc(-c3nc([C@H]4CC[C@H](C(=O)O)CC4)n4ncnc(N)c34)[nH]c12 [OSI-027] (partner 0.5 µM)
Outline: as §1

Cell Line	relative viability (Bosutinib + Vorinostat; first compound 0.01 µM)	relative viability (Bosutinib + Vorinostat; first compound 0.03162 µM)	relative viability (Bosutinib + Vorinostat; first compound 0.1 µM)	relative viability (Bosutinib + Vorinostat; first compound 1 µM)	relative viability (Bosutinib + AZD7762; first compound 0.01 µM)	relative viability (Bosutinib + AZD7762; first compound 0.03162 µM)	relative viability (Bosutinib + AZD7762; first compound 0.1 µM)	relative viability (Bosutinib + AZD7762; first compound 1 µM)	relative viability (Bosutinib + Trametinib; first compound 0.01 µM)	relative viability (Bosutinib + Trametinib; first compound 0.03162 µM)	relative viability (Bosutinib + Trametinib; first compound 0.1 µM)	relative viability (Bosutinib + Trametinib; first compound 1 µM)	relative viability (Bosutinib + Luminespib; first compound 0.01 µM)	relative viability (Bosutinib + Luminespib; first compound 0.03162 µM)	relative viability (Bosutinib + Luminespib; first compound 0.1 µM)	relative viability (Bosutinib + Luminespib; first compound 1 µM)	relative viability (Bosutinib + OSI-027; first compound 0.01 µM)	relative viability (Bosutinib + OSI-027; first compound 0.03162 µM)	relative viability (Bosutinib + OSI-027; first compound 0.1 µM)	relative viability (Bosutinib + OSI-027; first compound 1 µM)
LK-2	0.267	0.278	0.263	0.313	0.387	0.417	0.461	0.2	0.873	0.784	0.667	0.672	0.199	0.171	0.19	0.209	0.256	0.253	0.192	0.185
LOU-NH91	0.903	0.922	0.92	0.819	0.78	0.757	0.704	0.679	0.816	0.805	0.771	0.672	0.315	0.36	0.38	0.178	0.742	0.707	0.728	0.51
LU99A	0.51	0.495	0.573	0.483	0.376	0.362	0.354	0.287	0.53	0.623	0.645	0.517	0.231	0.258	0.242	0.242	0.313	0.332	0.32	0.343
LXF-289	0.808	0.852	0.792	0.758	1.17	1.14	1.14	1.02	0.654	0.721	0.679	0.751	0.718	0.674	0.702	0.689	0.765	0.849	0.823	0.898
NCI-H23	0.779	0.622	0.651	0.619	0.356	0.205	0.202	0.164	0.343	0.344	0.36	0.277	0.197	0.205	0.204	0.195	0.583	0.605	0.601	0.533
NCI-H322M	0.751	0.856	0.857	0.54	0.609	0.534	0.546	0.52	0.486	0.481	0.492	0.361	0.771	0.754	0.793	0.333	0.531	0.566	0.549	0.422
NCI-H358	0.634	0.697	0.548	0.483	0.638	0.547	0.556	0.359	0.132	0.128	0.121	0.109	0.28	0.331	0.372	0.439	0.786	0.742	0.787	0.545
NCI-H441	0.827	0.885	0.936	0.835	1.3	1.02	1.05	1.09	0.509	0.476	0.436	0.379	0.362	0.425	0.448	0.412	0.622	0.71	0.719	0.628
NCI-H460	0.719	0.717	0.761	0.775	0.645	0.576	0.482	0.415	0.17	0.135	0.157	0.0941	0.0343	0.0293	0.0274	0.0252	0.803	0.631	0.7	0.603
NCI-H522	0.873	0.88	0.892	0.783	0.794	0.714	0.698	0.897	0.723	0.711	0.689	0.723	1.15	1.16	1.26	1.01	0.734	0.641	0.682	0.69
NCI-H596	0.685	0.557	0.509	0.573	1.08	1.07	1.08	0.918	0.842	0.765	0.825	0.663	0.935	0.938	0.959	1.1	0.743	0.738	0.639	0.496
NCI-H647	0.584	0.568	0.667	0.642	0.608	0.516	0.421	0.252	0.488	0.483	0.375	0.221	0.202	0.284	0.159	0.183	0.661	0.741	0.724	0.496
NCI-H650	0.446	0.356	0.483	0.415	0.908	0.992	1.04	0.981	0.907	0.918	0.961	0.975	0.838	0.713	0.744	0.898	0.634	0.502	0.588	0.628
NCI-H727	1.04	1.27	1.33	0.973	0.549	0.59	0.641	0.451	0.377	0.359	0.378	0.305	0.233	0.477	0.55	0.504	0.605	0.817	0.564	0.529
NCI-H838	0.741	0.766	0.755	0.746	0.994	0.914	0.892	0.807	0.518	0.483	0.472	0.316	0.327	0.269	0.385	0.237	0.43	0.45	0.361	0.317
NCI-H1355	0.655	0.694	0.708	0.625	0.801	0.707	0.707	0.534	0.474	0.425	0.45	0.419	0.752	0.691	0.761	0.566	0.412	0.466	0.465	0.381

Cell Line	relative viability (Bosutinib + Vorinostat; first compound 0.01 µM)	relative viability (Bosutinib + Vorinostat; first compound 0.03162 µM)	relative viability (Bosutinib + Vorinostat; first compound 0.1 µM)	relative viability (Bosutinib + Vorinostat; first compound 1 µM)	relative viability (Bosutinib + AZD7762; first compound 0.01 µM)	relative viability (Bosutinib + AZD7762; first compound 0.03162 µM)	relative viability (Bosutinib + AZD7762; first compound 0.1 µM)	relative viability (Bosutinib + AZD7762; first compound 1 µM)	relative viability (Bosutinib + Trametinib; first compound 0.01 µM)	relative viability (Bosutinib + Trametinib; first compound 0.03162 µM)	relative viability (Bosutinib + Trametinib; first compound 0.1 µM)	relative viability (Bosutinib + Trametinib; first compound 1 µM)	relative viability (Bosutinib + Luminespib; first compound 0.01 µM)	relative viability (Bosutinib + Luminespib; first compound 0.03162 µM)	relative viability (Bosutinib + Luminespib; first compound 0.1 µM)	relative viability (Bosutinib + Luminespib; first compound 1 µM)	relative viability (Bosutinib + OSI-027; first compound 0.01 µM)	relative viability (Bosutinib + OSI-027; first compound 0.03162 µM)	relative viability (Bosutinib + OSI-027; first compound 0.1 µM)	relative viability (Bosutinib + OSI-027; first compound 1 µM)
NCI-H1395	0.802	0.827	0.862	0.787	0.405	0.425	0.387	0.38	0.992	0.993	1.02	0.928	0.677	0.635	0.761	0.615	0.679	0.662	0.771	0.629
NCI-H1437	0.875	0.793	0.842	0.805	1.08	1.07	1.13	0.922	0.486	0.403	0.53	0.413	1.02	1.11	1.1	1.03	0.887	0.878	0.938	0.886
NCI-H1651	0.548	0.636	0.646	0.569	0.473	0.515	0.443	0.441	0.805	0.801	0.829	0.757	0.738	0.942	0.812	0.902	0.678	0.793	0.709	0.657
NCI-H1666	0.99	0.99	1.12	1.22	0.719	0.836	0.832	0.788	0.888	0.774	0.832	0.842	1.02	1.01	0.995	1.1	0.773	0.811	0.821	1.03
NCI-H1734	0.836	0.86	0.855	0.654	0.632	0.512	0.512	0.369	0.693	0.711	0.726	0.591	0.172	0.181	0.217	0.196	0.584	0.609	0.684	0.538
NCI-H1755	0.809	0.919	0.904	0.731	0.412	0.462	0.446	0.418	0.706	0.798	0.856	0.76	0.465	0.454	0.45	0.351	0.786	0.853	0.803	0.663
NCI-H1793	0.718	0.75	0.877	0.504	0.497	0.39	0.366	0.175	0.383	0.394	0.454	0.298	0.213	0.205	0.163	0.179	0.254	0.276	0.262	0.23
NCI-H1915	0.509	0.531	0.578	0.571	0.718	0.647	0.654	0.572	0.306	0.291	0.295	0.253	0.768	0.816	0.815	0.64	0.646	0.671	0.71	0.669
NCI-H1944	0.608	0.577	0.572	0.569	0.558	0.533	0.476	0.394	0.415	0.45	0.394	0.327	0.839	0.713	0.777	0.469	0.436	0.412	0.379	0.374
NCI-H1975	0.654	0.684	0.684	0.673	0.742	0.711	0.642	0.559	0.29	0.329	0.42	0.322	0.244	0.252	0.21	0.141	0.735	0.761	0.697	0.534
NCI-H1993	0.727	0.733	0.654	0.885	0.759	0.778	0.847	0.672	0.461	0.513	0.579	0.538	0.688	0.817	0.875	0.887	0.54	0.541	0.539	0.469
NCI-H2085	0.866	0.769	0.788	0.705	1.1	0.903	0.939	0.65	0.564	0.467	0.54	0.5	0.393	0.466	0.492	0.44	0.741	0.781	0.726	0.462
NCI-H2087	0.777	0.5	0.647	0.697	1.54	1.13	1.31	1.24	0.156	0.218	0.228	0.223	0.194	0.154	0.146	0.151	0.685	0.701	0.727	0.727
NCI-H2126	0.71	0.799	0.858	0.722	0.982	1.04	1.03	1.04	0.528	0.546	0.559	0.536	0.848	0.828	0.874	0.725	0.678	0.784	0.753	0.688
NCI-H2170	0.882	0.832	0.891	0.774	0.922	0.924	0.819	0.801	0.93	0.896	0.948	0.946	0.515	0.665	0.702	0.44	0.7	0.684	0.732	0.654
